Laboratory results published in patent US7196198B2, “Benzoic acid derivatives, processes for the preparation thereof and pharmaceutical agents comprising the same as active ingredient” (Ono Pharmaceutical Co., Ltd., priority 2000, dated 2007).
Where a name gives a salt, the structure may show the parent alone.

What was measured:
EP4 [1] = biological target: T1, EP4 (Mus musculus, UniProt P32240); assay: EP4 antagonizing activity assay using the cell expressing the prostanoid receptor subtypes (cAMP production in CHO cells); assay type: cell-based; details: inhibition of cAMP production with 100 nM PGE2 as agonist; CHO cell expressing receptor subtype
T1 construct: expressed in transfected cells; host or cells: CHO cells (membrane fraction)
Description: (ii) EP4 Antagonizing Activity Assay Using the Cell Expressing the Prostanoid Receptor Subtypes
The preparation of CHO cell expressing prostanoid receptor subtype was carried out according to the method of Nishigaki et al [FEBS lett., 364, 339–341(1995)]. The cells were cultured in 24-well microplates (10^5 cells/well) for two days before experiments. After washing each well with 500 μL of MEM (minimum essential medium), thereto was added 450 μL of assay medium (MEM containing 1 mmol/L IBMX, 1% BSA), and the mixture was incubated for 10 minutes at 37° C. Then PGE2 alone or a combination with a test compound (50 μL) were added, and the mixture was incubated for 10 minutes at 37° C. And reaction was terminated by addition of ice-cold TCA (10% W/V, 500 μL). This reaction mixture was freezed once (−80° C.) and thawed, and cells were harvested using a scraper. After centrifugation (13,000 r.p.m., for 3 minutes), cAMP content was measured using cAMP assay kit. That is, the supernatant (125 μL) was diluted with 500 μL of [^125I]-cAMP assay kit buffer (Amersham), and mixed with 0.5 mol/L tri-n-octylamine/chloroform solution (1 mL) was mixed. After removal of TCA from chloroform layer, cAMP content in the aqueous layer was quantified according to the method of kit manuals. […]

EP4 [2] = biological target: T1, EP4; assay: Binding assay using cell expressing the prostanoid receptor subtypes ([3H]-PGE2 competition, CHO membrane fraction); details: membrane fraction of CHO cell expressing mouse EP4, Ki=IC50/(1+([C]/Kd))
Description: (i) Binding Assay Using Cell Expressing The Prostanoid Receptor Subtypes
The preparation of membrane fraction was carried out according to the method of Sugimoto et al [J. Biol. Chem. 267, 6463–6466 (1992)], using CHO cell expressing prostanoid receptor subtype (mouse EP1, EP2, EP3, EP4 and human IP).
The standard assay mixture containing membrane fraction (0.5 mg/mL), [^3H]-PGE2 in a final volume of 200 μl was incubated for 1 hour at room temperature. The reaction was terminated by addition of 3 mL of ice-cold buffer. The mixture was rapidly filtered through a glass filter (GF/B) under reduced pressure. The radioactivity associated with the filter was measured by liquid scintillation counter.
Kd and Bmax values were determined from Scatchard plots [Ann. N.Y. Acad. Sci. 51, 660(1949)]. Non-specific binding was calculated as the amount bound in the presence of an excess (2.5 μM) of unlabeled PGE2. In the experiment for competition of specific [^3H]-PGE2 binding by the compounds of the present invention, [^3H]-PGE2 was added at a concentration of […] and the compound of the present invention was added at various concentrations. The following buffer was used in all reactions. • Buffer: 10 mM potassium phosphate (pH 6.0), 1 mM EDTA, 10 mM MgCl2, 0.1 M NaCl. • The dissociation constant (Ki) (μM) of each compound was calculated by the following equation. Ki=IC50/(1+([C]/Kd))

T1 sequence (P32240 whole entry): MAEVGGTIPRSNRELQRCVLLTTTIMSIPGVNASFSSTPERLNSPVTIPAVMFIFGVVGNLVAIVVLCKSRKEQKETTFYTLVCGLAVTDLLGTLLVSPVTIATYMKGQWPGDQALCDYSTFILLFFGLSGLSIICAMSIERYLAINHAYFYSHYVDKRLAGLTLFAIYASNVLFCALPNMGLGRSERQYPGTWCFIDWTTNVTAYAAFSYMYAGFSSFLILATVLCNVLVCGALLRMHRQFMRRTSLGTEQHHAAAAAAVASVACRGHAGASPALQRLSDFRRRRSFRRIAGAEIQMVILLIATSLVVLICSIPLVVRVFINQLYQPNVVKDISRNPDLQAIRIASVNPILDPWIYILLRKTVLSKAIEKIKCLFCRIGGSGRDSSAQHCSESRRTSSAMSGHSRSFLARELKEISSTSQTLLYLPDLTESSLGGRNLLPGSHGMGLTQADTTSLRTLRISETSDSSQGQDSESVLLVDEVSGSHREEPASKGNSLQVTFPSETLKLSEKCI

SMILES | IC50 (EP4 [1]) | Ki (EP4 [2])
CC(C(=O)Nc1ccccc1Cc1ccccc1C(=O)O)c1cccc2ccccc12 (stereo not shown) [Example 2(1), 2-[2-[2-(1-naphthyl)propanoylamino]phenylmethyl]benzoic acid] | 10 nM | 2.7 nM
CC(C(=O)Nc1ccncc1Cc1ccccc1C(=O)O)c1cccc2ccccc12 (stereo not shown) [Example 2(15), 2-[4-[2-(1-naphthyl)propanoylamino]pyridin-3-ylmethyl]benzoic acid monohydrochloride] |  | 6.5 nM
CC(C(=O)Nc1ccccc1Cc1ccccc1C(=O)O)c1ccc(OCc2ccccc2)cc1 (stereo not shown) [Example 4(1), 2-[2-[2-(4-benzyloxyphenyl)propanoylamino]phenylmethyl]benzoic acid] |  | 10.5 nM
